Entries after “also recorded” stand apart in the source; their conditions may differ.
Experiments:
Assay type in all cases: in vivo, C57Bl/6 (B6) mice
[1] = tested on: experimental MMP mouse model (anti-mLAMα3 IgG induced); test: Conjunctival lesions by lesional histopathology (H&E) of palpebral conjunctiva in antibody transfer-induced experimental MMP; details: for overall therapeutic effect in diseased mice: administered topically twice a day, days 12 and 28; for subepithelial inflammatory infiltrate, semi-quantification of H&E stained palpebral conjunctival biopsies / palpebral conjunctival split formation (conjunctiva score): vs vehicle; for palpebral conjunctival split formation (conjunctiva score): score 0-4
Description: (§1) Adult C57Bl/6 (B6) mice (male and female) aged at least 6 weeks old were used. Animals were maintained on a 12-h light-dark cycle at the animal facility of the University of Lübeck. Mice were held under SPF conditions and fed acidified drinking water and standard chow ad libitum. Protocols were approved by the Animal Rights Commission of the Ministry of Agriculture and Environment, Schleswig-Holstein.
For production of anti-mLAMα3 IgG, New Zealand White rabbits were immunized subcutaneously with […] of an equimolar mixture of the 2 purified recombinant proteins (aa1656-1985 and aa2756-3330 of murine Laminin alpha3 chain, produced in E. coli as disclosed by Heppe, E. N., et al., J Invest Dermatol, 2017, 137, 1709-1718) suspended in complete Freund's adjuvant. The animals were boosted twice with the same protein preparation in incomplete Freund's adjuvant. Immune sera were obtained at regular intervals and characterized by IF microscopy on cryosections of murine skin. IgG from rabbits immunized with recombinant fragments of murine mLAMα3 and from non-immunized rabbits was purified by affinity chromatography using protein G sepharose affinity chromatography (Amersham Biosciences, Heidelberg, Germany). Reactivity of IgG fractions was analyzed by IF microscopy on murine skin (Sitaru et al., J Immunol 2006, 177: 3461-8). In addition, each batch of anti-mLAMα3 IgG was characterized in vivo regarding its capability to induce experimental MMP in C57Bl/6 (B6) mice (WP1.1). From this experiment, the amount of antibodies that leads to moderate experimental MMP was determined; i.e. the amount needed to induce disease development with moderate involvement of the conjunctiva (i.e. score of 1-3 in a maximum of 50% of the animals on day 12) in the model of antibody transfer-induced MMP. For this purpose, the intensity of the separation of the conjunctiva is determined histologically. The body surface area affected should be between 3-8% at the concentration used. The conjunctiva score was set histologically post-mortem and was in a range of 0-4, depending on the intensity of the separation of the conjunctiva. The amount needed was determined to be 5 mg/injection of anti-mLAMα3 IgG.
To test DF2156A at 0.5% and reparixin at 0.5% effects on the severity of conjunctival involvement in experimental MMP, the disease was induced by repetitive subcutaneous (s.c.) injections of anti-mLAMα3 IgG (5 mg/mouse) on alternating days (0, 2, ( . . . ) and 10) into adult B6 mice, which were treated throughout the entire experiment twice a day via eyedrops. Three eyedrops per eye were given twice daily. Mice treated with solvent via eyedrops or methylprednisolone (MP) via i.p. injections were used as treatment controls. Mice s.c. injected with IgG isolated from normal rabbit serum (NR IgG) served as negative control.
The primary endpoint of this experiment was the extent of conjunctival lesions as determined by lesional histopathology (H&E stain) on day 12 and 28 following an established scoring system (Heppe, E. N., et al., J Invest Dermatol, 2017, 137, 1709-1718). In detail, biopsies from the palpebral conjunctiva were taken on day 12 and day 28 and paraffine embedded. 4.5 μm thick sections from 3 different depths of the biopsies were cut in triplicate and H&E stained for further quantification. Among the H&E stained histologies those with a palpebral conjunctival-epithelium with more than 1000 μm were used for quantification. For this score the length of the split formation (split=epithelia separation from the underlying dermal structures) is measured. The split length is categorized to a score of 0-4 with no split=0, less than 100 μm=1, less than 200 μm=2, less than 300 μm=3, more or equal 300 μm=4. Splits that occurred at the end of the tissue were excluded, because they were most likely to be of artificial nature due to the cutting. The longest split out of 9 possible sections is decisive for the final score. […]

[2] = tested on: experimental MMP mouse model (anti-mLAMα3 IgG induced); test: Macroscopic affected eye area in experimental MMP; details: DF2156A topical eyedrops, MP i.p. once daily
Description: as §1
For production of anti-mLAMα3 IgG, New Zealand White rabbits were immunized subcutaneously with […] of an equimolar mixture of the 2 purified recombinant proteins (aa1656-1985 and aa2756-3330 of murine Laminin alpha3 chain, produced in E. coli as disclosed by Heppe, E. N., et al., J Invest Dermatol, 2017, 137, 1709-1718) suspended in complete Freund's adjuvant. […] Reactivity of IgG fractions was analyzed by IF microscopy on murine skin (Sitaru et al., J Immunol 2006, 177: 3461-8). […] From this experiment, the amount of antibodies that leads to moderate experimental MMP was determined; i.e. the amount needed to induce disease development with moderate involvement of the conjunctiva (i.e. score of 1-3 in a maximum of 50% of the animals on day 12) in the model of antibody transfer-induced MMP. For this purpose, the intensity of the separation of the conjunctiva is determined histologically. […] The amount needed was determined to be 5 mg/injection of anti-mLAMα3 IgG. […]

[3] = tested on: experimental MMP mouse model (anti-mLAMα3 IgG induced); test: Severity of oral lesions by endoscopy (oral score) in experimental MMP; details: day 28; vs vehicle; DF2156A eyedrops, MP i.p.; maximum score 4
[4] = day 12, 0.5% eyedrops twice daily
[5] = day 28, 0.5% eyedrops twice daily
[6] = day 28, 0.5% eyedrops twice daily, listed as Reparixin

| SMILES | overall therapeutic effect in diseased mice [1] | subepithelial inflammatory infiltrate, semi-quantification of H&E stained palpebral conjunctival biopsies [1, 4] | palpebral conjunctival split formation (conjunctiva score) ([1]; day 12, DF2156A 0.5% or reparixin 0.5% eyedrops twice daily) | subepithelial inflammatory infiltrate, semi-quantification of H&E stained palpebral conjunctival biopsies [1, 5] | palpebral conjunctival split formation (conjunctiva score) [1, 5] | extent of macroscopic affected eye area ([2]; day 12) | extent of affected eye area (AUC over 28 days) ([2]; day 28) | severity of oral lesions (oral score) [3] | subepithelial inflammatory infiltrate, semi-quantification of H&E stained palpebral conjunctival biopsies [1, 6] | palpebral conjunctival split formation (conjunctiva score) [1, 6] |
| --- | --- | --- | --- | --- | --- | --- | --- | --- | --- | --- |
| C[C@@H](C(=O)NS(C)(=O)=O)c1ccc(OS(=O)(=O)C(F)(F)F)cc1 [DF2156A, R(−)-2-[(4-trifluoromethanesulfonyloxy)phenyl]-N-methanesulfonyl propionamide] | overall benefit | reduced | significant reduction; also recorded: improvement | decreased; also recorded: improvement | significant reduction; also recorded: improvement | reduction | reduction | decreased |  |  |
| CC(C)Cc1ccc([C@@H](C)C(=O)NS(C)(=O)=O)cc1 [reparixin, R-(−)-2-(4-isobutylphenyl)propionyl methansulfonamide] | overall benefit; also recorded: slower onset of the therapeutic effect | reduced |  | significantly decreased | significant reduction |  |  |  | reduced | reduced |

Reference: US20260216292A1, “CXCL8 INHIBITORS FOR USE IN THE TREATMENT OF OCULAR MUCOUS MEMBRANE PEMPHIGOID AND/OR ORAL MUCOUS MEMBRANE PEMPHIGOID” (DOMPE' FARMACEUTICI SPA, priority 2023, published 2026)
